Measurements from patent US9266847B2, “Compounds, probes, and methods of synthesis and methods of imaging COX-2-associated diseases” (Vanderbilt University, priority 2012, dated 2016).

Biological target: T1, ovine COX2 (Ovis aries, UniProt P79208)
T1 sequence (P79208 17-603): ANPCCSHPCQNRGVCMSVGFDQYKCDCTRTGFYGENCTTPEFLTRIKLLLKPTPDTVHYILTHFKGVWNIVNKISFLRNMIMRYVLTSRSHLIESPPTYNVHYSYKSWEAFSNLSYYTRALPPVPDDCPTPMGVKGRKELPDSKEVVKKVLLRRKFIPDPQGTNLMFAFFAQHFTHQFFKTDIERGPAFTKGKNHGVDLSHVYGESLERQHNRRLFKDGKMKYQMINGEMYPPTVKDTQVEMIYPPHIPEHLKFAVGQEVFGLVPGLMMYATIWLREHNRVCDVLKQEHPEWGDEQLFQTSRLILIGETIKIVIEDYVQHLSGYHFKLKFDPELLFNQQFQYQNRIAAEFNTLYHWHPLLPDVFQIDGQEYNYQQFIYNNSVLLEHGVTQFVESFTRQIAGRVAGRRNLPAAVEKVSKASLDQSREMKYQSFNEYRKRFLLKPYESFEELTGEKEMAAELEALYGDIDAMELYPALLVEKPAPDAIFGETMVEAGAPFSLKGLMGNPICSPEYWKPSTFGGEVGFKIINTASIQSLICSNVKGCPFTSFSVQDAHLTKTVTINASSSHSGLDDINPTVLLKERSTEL
Assay: IC50 assay, Cayman colorimetric COX inhibitor screening assay kit
Settings: FIG. 2, 10 duplicate concentrations
Procedure: Various concentrations of the ^19F-COX2 compound ranging from 0.1 μM to 0.3 nM were dispensed into designated wells within a 96-well microtiter plate at a final volume of 220 μL per well. Each well contained an assay buffer, heme, and ovine COX2 provided in Cayman's colorimetric COX inhibitor screening assay kit. […] Five minutes after incubation of all assay components at 25° C., an arachidonic acid substrate at a final concentration of 100 μM and the colorimetric co-substrate N,N,N′,N′-tetramethyl-p-phenylenediamine were added to each well. The plate was then incubated at 25° C. for an additional 5 min before reading the absorbance at 590 nm using a plate reader. Absorbance of the duplicate assay of each well was averaged and subtracted from the 100% initial activity sample, after which it was divided by the 100% initial activity sample and multiplied by 100 to arrive at the percentage of inhibition.

Hill slope of the inhibition curve: −0.62
Structure (SMILES): Cc1csc(Cc2c3cccccc-3c(C(=O)c3ccc(F)cc3)c2C)n1 [^19F-COX2]
